Several values for one entry are separate records, joined by “and”; a condition that tells them apart may be missing. Identical values can stand only once.
Assays:
Experiment in all cases: In vivo IPTG dose-response of LacI-regulated eYFP expression from the pVER plasmid in E. coli grown in rich M9 medium at 37 °C, measured by flow cytometry and fitted to the Hill equation by Bayesian MCMC (posterior mean and SD).
Type in all cases: cell-based, E. coli MG1655Δlac
Conditions in all cases: read-out: log_ec50 (base-10 logarithm of EC50 in μmol/L) (converted)
[1] = target: T1, pVER-IPTG-007 (Escherichia coli, UniProt P03023, A199V/D88Y/K84E/L342M/L90P/Q153L/R351P/S358R)
T1 construct: gene lacI; LacI expressed from pVER plasmid
T1 sequence (P03023 whole entry K84E/D88Y/L90P/Q153L/A199V/L342M/R351P/S358R): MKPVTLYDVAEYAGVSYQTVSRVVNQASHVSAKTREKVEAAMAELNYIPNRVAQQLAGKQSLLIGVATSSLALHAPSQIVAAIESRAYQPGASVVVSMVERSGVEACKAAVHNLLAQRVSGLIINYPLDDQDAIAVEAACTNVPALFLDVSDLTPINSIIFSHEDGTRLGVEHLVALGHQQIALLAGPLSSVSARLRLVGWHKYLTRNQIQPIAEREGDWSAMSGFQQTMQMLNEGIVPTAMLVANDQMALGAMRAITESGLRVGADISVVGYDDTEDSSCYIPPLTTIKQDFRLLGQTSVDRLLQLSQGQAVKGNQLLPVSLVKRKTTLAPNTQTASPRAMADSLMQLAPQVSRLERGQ
Protocol: (§1) All reported measurements were completed using E. coli strain MG1655Δlac, in which the lactose operon of E. coli strain MG1655 (ATCC #47076) was replaced with the bleomycin resistance gene from Streptoalloteichus hindustanus (Shble).
(§2) Dose-response curves were measured with flow cytometry using E. coli MG1655Δlac transformed with variants of the pVER plasmid, described previously. The plasmid contained different variants of the lacI coding DNA sequence (CDS), as described in the text, and an expression cassette with enhanced yellow fluorescent protein (eYFP) under the control of the lactose operator (lacO). The lacI CDS was verified with Sanger sequencing for each variant.
(§3) All cultures were grown in a rich M9 media (3 g/L KH2PO4, 6.78 g/L Na2HPO4, 0.5 g/L NaCl, 1 g/L NH4Cl, 0.1 mmol/L CaCl2, 2 mmol/L MgSO4, 4% glycerol, and 20 g/L casamino acids) supplemented with 50 μg/mL kanamycin.
(§4) • Prepare first growth plate, with 450 μL rich M9 media in each well. • Pipette 50 μL of starter culture into each well in rows B-G of the plate (leaving rows A and H blank). • Use a E. coli containing a different lacI variant for each row. • Seal first growth plate with gas permeable membrane. • Incubate plate in plate reader for 12 h to 14 h. • Grow to stationary to provide a reproducible starting point for each measurement. • Prepare second growth plate with 490 μL in each well. • Dilution series of isopropyl-β-D-thiogalactopyranoside (IPTG): 11 columns of a 2-fold serial dilution gradient and one column with zero IPTG. • Ten minutes before the end of the incubation cycle for the first growth plate, move the second growth plate to a heated station set to 47°C. • Ten minutes at 47°C will pre-warm the media in the plate to 37°C. • De-seal the first growth plate (after completion of the stationary-phase incubation cycle). • Pipette 10 μL from each well in the first growth plate to the corresponding well in the second growth plate. • 50-fold dilution; using a 96-channel pipetting head. • Seal second growth plate with gas permeable membrane. • Incubate second growth plate in plate reader for 160 minutes. • Sufficient for approximately 10-fold increase in cell density or 3.3 doublings. • Prepare third growth plate with 450 μL in each well. • Same dilution series as in second growth plate. • Ten minutes before the end of the incubation cycle for the second growth plate, move the third growth plate to a heated station set to 47°C. • De-seal the second growth plate (after completion of the 160 minute incubation cycle). • Pipette 50 μL from each well in the second growth plate to the corresponding well in the third growth plate. • 10-fold dilution; using a 96-channel pipetting head. • Seal third growth plate with gas permeable membrane. • Incubate third growth plate in plate reader for 160 minutes. • Prepare flow cytometry sample plate (round-bottom 96-well plate, Falcon, 351177). • Each well in rows B-G: 195 μL 1x PBS with 170 μg/mL chloramphenicol (Fisher BioReagents, cat. #BP904-100). • Rows A and H: PBS blanks, focusing fluid blanks, and space for calibration bead sample • At the end of the incubation cycle for the third growth plate, pipette 5 μL from each well to the corresponding well in the flow cytometry sample plate.
(§5) Flow cytometry samples were measured with an Attune NxT flow cytometer equipped with a 96-well plate autosampler using a 488 nm excitation laser and a 530 nm ± 15 nm bandpass emission filter. Blank samples were measured with each batch of cell measurements, and an automated gating algorithm was used to discriminate cell events from non-cell events. Fluorescence calibration beads (Spherotech, part no. RCP-30-20A) were also measured with each batch of samples to facilitate calibration of flow cytometry data to molecules of equivalent fluorescein (MEF). […]

[2] = target: T2, pVER-IPTG-010 (Escherichia coli, UniProt P03023, A72V/I210F/K84N/M254T/T336S)
T2 construct: gene lacI; LacI expressed from pVER plasmid
T2 sequence (P03023 whole entry A72V/K84N/I210F/M254T/T336S): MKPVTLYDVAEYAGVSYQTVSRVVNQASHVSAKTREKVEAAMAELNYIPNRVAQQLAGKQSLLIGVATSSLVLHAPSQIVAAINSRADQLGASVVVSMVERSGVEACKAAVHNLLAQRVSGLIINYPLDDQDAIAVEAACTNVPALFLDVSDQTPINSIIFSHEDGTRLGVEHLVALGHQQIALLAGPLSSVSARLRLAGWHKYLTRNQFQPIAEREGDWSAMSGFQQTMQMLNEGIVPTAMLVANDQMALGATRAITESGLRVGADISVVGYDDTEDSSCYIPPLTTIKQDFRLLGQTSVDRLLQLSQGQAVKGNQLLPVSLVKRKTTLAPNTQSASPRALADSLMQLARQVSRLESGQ
Protocol: as §1, §2, §3, §4, §5

[3] = target: T3, pVER-IPTG-075 (also pVER-IPTG-138) (Escherichia coli, UniProt P03023, A81S/E100K/L148V/Q60R/S221N/S28G/T34M/V271L)
T3 construct: gene lacI; LacI expressed from pVER plasmid
T3 sequence (P03023 whole entry S28G/T34M/Q60R/A81S/E100K/L148V/S221N/V271L): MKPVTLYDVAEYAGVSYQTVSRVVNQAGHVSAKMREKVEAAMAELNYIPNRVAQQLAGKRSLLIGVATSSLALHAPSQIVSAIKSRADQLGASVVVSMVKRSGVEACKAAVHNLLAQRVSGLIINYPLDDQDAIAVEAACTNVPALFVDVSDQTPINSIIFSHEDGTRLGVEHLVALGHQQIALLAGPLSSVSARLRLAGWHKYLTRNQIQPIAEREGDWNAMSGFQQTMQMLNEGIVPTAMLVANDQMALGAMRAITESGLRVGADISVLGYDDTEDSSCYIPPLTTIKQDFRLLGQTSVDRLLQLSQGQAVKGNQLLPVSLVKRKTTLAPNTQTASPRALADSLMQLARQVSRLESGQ
Protocol: as §1, §2, §3, §4, §5

[4] = target: T4, pVER-IPTG-078 (Escherichia coli, UniProt P03023, A110V/A72V/N142D/S322L)
T4 construct: gene lacI; LacI expressed from pVER plasmid
T4 sequence (P03023 whole entry A72V/A110V/N142D/S322L): as the sequence (P03023 whole entry A72V/K84N/I210F/M254T/T336S) above, with N84K, A110V, N142D, F210I, T254M, S322L, S336T counted along it
Protocol: as §1, §2, §3, §4, §5

[5] = target: T5, pVER-IPTG-002(S70R) (Escherichia coli, UniProt P03023, M254I/S158R/S70R/T154I/V238D/V264I/V96E)
T5 construct: gene lacI; LacI expressed from pVER plasmid
T5 sequence (P03023 whole entry S70R/V96E/T154I/S158R/V238D/M254I/V264I): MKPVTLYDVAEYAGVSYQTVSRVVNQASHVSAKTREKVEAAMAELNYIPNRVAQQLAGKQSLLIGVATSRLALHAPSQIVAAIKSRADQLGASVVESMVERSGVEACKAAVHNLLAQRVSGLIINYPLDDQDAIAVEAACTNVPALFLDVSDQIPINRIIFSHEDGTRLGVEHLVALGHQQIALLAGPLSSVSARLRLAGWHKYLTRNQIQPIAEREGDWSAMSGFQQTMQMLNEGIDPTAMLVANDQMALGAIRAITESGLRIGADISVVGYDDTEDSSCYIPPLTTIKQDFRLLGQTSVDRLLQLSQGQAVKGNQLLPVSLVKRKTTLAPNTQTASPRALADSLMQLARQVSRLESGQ
Protocol: as §1, §2, §3, §4, §5

[6] = target: T6, pVER-IPTG-080 (Escherichia coli, UniProt P03023, A109E/D165V/E259G/G166A/R255C)
T6 construct: gene lacI; LacI expressed from pVER plasmid
T6 sequence (P03023 whole entry A109E/D165V/G166A/R255C/E259G): as the sequence (P03023 whole entry A72V/K84N/I210F/M254T/T336S) above, with V72A, N84K, A109E, D165V, G166A, F210I, T254M, R255C, E259G, S336T counted along it
Protocol: as §1, §2, §3, §4, §5

[7] = target: T7, pVER-IPTG-004(V136E) (Escherichia coli, UniProt P03023, A87P/E357G/V136E/V301M)
T7 construct: gene lacI; LacI expressed from pVER plasmid
T7 sequence (P03023 whole entry A87P/V136E/V301M/E357G): as the sequence (P03023 whole entry A72V/K84N/I210F/M254T/T336S) above, with V72A, N84K, A87P, V136E, F210I, T254M, V301M, S336T, E357G counted along it
Protocol: as §1, §2, §3, §4, §5

[8] = target: T8, pVER-IPTG-079 (Escherichia coli, UniProt P03023, A116T/S190C/T141I/V99E)
T8 construct: gene lacI; LacI expressed from pVER plasmid
T8 sequence (P03023 whole entry V99E/A116T/T141I/S190C): as the sequence (P03023 whole entry A72V/K84N/I210F/M254T/T336S) above, with V72A, N84K, V99E, A116T, T141I, S190C, F210I, T254M, S336T counted along it
Protocol: as §1, §2, §3, §4, §5

[9] = target: T9, pVER-IPTG-008 (Escherichia coli, UniProt P03023, A266T/I237T/I289F/S61L/T258S)
T9 construct: gene lacI; LacI expressed from pVER plasmid; stop codon at 351
T9 sequence (P03023 1-350 S61L/I237T/T258S/A266T/I289F): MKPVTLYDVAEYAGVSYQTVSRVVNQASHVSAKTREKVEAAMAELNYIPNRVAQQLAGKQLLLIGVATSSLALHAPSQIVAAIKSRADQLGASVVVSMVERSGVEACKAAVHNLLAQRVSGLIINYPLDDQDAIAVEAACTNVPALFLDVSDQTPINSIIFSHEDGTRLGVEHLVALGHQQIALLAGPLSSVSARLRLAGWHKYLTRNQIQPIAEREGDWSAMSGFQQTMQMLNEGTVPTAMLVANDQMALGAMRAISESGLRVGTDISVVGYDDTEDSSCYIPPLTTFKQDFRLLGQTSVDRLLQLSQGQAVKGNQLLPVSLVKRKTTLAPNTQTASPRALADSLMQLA
Protocol: as §1, §2, §3, §4, §5

[10] = target: T10, pVER-IPTG-081 (Escherichia coli, UniProt P03023, M347V/P285S/S308P/V301M)
T10 construct: gene lacI; LacI expressed from pVER plasmid
T10 sequence (P03023 whole entry P285S/V301M/S308P/M347V): as the sequence (P03023 whole entry A72V/K84N/I210F/M254T/T336S) above, with V72A, N84K, F210I, T254M, P285S, V301M, S308P, S336T, M347V counted along it
Protocol: as §1, §2, §3, §4, §5

[11] = target: T11, pVER-IPTG-004 (Escherichia coli, UniProt P03023, A87P/E357G/V301M)
T11 construct: gene lacI; LacI expressed from pVER plasmid
T11 sequence (P03023 whole entry A87P/V301M/E357G): as the sequence (P03023 whole entry A72V/K84N/I210F/M254T/T336S) above, with V72A, N84K, A87P, F210I, T254M, V301M, S336T, E357G counted along it
Protocol: as §1, §2, §3, §4, §5

[12] = target: T12, pVER-IPTG-001 (Escherichia coli, UniProt P03023, D130E/D267N/N333I/Q55H/T258I/V192A/Y273H)
T12 construct: gene lacI; LacI expressed from pVER plasmid
T12 sequence (P03023 whole entry Q55H/D130E/V192A/T258I/D267N/Y273H/N333I): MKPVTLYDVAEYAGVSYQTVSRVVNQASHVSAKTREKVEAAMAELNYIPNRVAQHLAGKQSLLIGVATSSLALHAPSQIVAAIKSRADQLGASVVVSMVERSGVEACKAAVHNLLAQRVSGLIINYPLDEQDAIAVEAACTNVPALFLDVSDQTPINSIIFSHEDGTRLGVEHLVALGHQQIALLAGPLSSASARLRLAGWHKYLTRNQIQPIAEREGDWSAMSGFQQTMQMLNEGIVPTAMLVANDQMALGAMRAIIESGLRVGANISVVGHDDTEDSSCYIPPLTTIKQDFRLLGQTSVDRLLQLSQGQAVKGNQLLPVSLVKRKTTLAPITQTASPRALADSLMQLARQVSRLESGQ
Protocol: as §1, §2, §3, §4, §5

## CC(C)S[C@@H]1O[C@H](CO)[C@H](O)[C@H](O)[C@H]1O [IPTG, isopropyl-β-D-thiogalactopyranoside]
[1]
  EC50: 29.4 µmol/L
[2]
  EC50: 9.17 µmol/L
[3]
  EC50: 3 µmol/L and 2.99 µmol/L
[4]
  EC50: 3.61 µmol/L
[5]
  EC50: 4690 µmol/L
[6]
  EC50: 6.96 µmol/L
[7]
  EC50: 421000 µmol/L
[8]
  EC50: 7.24 µmol/L
[9]
  EC50: 77.3 µmol/L
[10]
  EC50: 8.46 µmol/L
[11]
  EC50: 234 µmol/L
[12]
  EC50: 774 µmol/L

Reference: PMC10057847, “Precision engineering of biological function with large-scale measurements and machine learning” (PLOS ONE, 2023)
